This note sets out measurements from ChEMBL document CHEMBL1201862, “PubChem BioAssay data set” (2004).

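The compound was tested at five concentrations on cells cultured in 96-well plates, with a 48-hour exposure period. GI50 marks 50% less growth.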 Calls of active or inactive are those of the source. Cut-off read from the data, not from the text of the source: active = GI50 up to about 1.1 µM and inactive = higher.

Some test systems named below: A498; A549; COLO 205; HCC 2998; HCT-15; K562; KM12; MCF7; MDA-MB-231; MDA-N; NCI-H522; OVCAR-5; PC-3; RPMI-8226; SN12C; SW-620; TK-10; U-251; UACC-62; UO-31.
What all share (test): growth of human tumour cells (NCI), 48 h

Take `OC1C2[C@@H](O)CCCN2C[C@@H](O)[C@H]1O` (stereo not given in full): the GI50 with A498 was > 100 µM (inactive); in the experiment with A549, > 100 µM (inactive); in the experiment on COLO 205, > 100 µM (inactive); in the experiment on HCC 2998, > 100 µM (inactive); in the experiment with HCT-15 it was over 100 µM; in the experiment on K562, > 100 µM (inactive). Besides, the GI50 in the experiment with KM12 was > 100 µM (inactive); with MCF7 it was > 100 µM (inactive); in the experiment with MDA-MB-231, > 100 µM (inactive); in the experiment with MDA-N it was > 100 µM (inactive); in the experiment on NCI-H522, 71.1 µM (inactive); with OVCAR-5, > 100 µM (inactive). For the same compound, the GI50 in the experiment with PC-3, in the experiment on RPMI-8226, in the experiment with SN12C, in the experiment with SW-620, in the experiment with TK-10 and in the experiment with U-251 was > 100 µM (inactive) throughout. The GI50 with UACC-62 and in the experiment on UO-31 was > 100 µM (inactive) each time.

Consider `COc1ccc2nc3cc([N+](=O)[O-])ccc3c(NNc3ccccc3)c2c1`, for which the GI50 in the experiment with A498 was 0.0681 µM (active); in the experiment with A549 it was 13.9 µM (inactive); in the experiment with COLO 205 it was 10.8 µM (inactive); in the experiment on HCC 2998 it was 23.2 µM (inactive); in the experiment on HCT-15, 22.6 µM; in the experiment with K562, 5.69 µM (inactive). Further, the GI50 was 12.4 µM (inactive) in the experiment with KM12; 10.8 µM (inactive) in the experiment on MCF7; 20.6 µM (inactive) in the experiment on MDA-MB-231; 29.5 µM (inactive) in the experiment with MDA-N; 20.7 µM (inactive) in the experiment with NCI-H522; 2.07 µM (inactive) in the experiment with OVCAR-5. For the same compound, the GI50 with PC-3 is 35.4 µM (inactive); with RPMI-8226 it was 17.5 µM (inactive); in the experiment on SN12C it was 30.2 µM (inactive); in the experiment on SW-620 it was 17.3 µM (inactive); with TK-10, 2.58 µM (inactive); in the experiment on U-251 it was 18.7 µM (inactive). The GI50 with UACC-62 is 2 µM (inactive); with UO-31 it was 31.4 µM (inactive).

Consider `COc1cc(/C=N/c2nc3cc4sc(/N=C/c5cc(OC)c(OC)c(OC)c5)nc4cc3s2)cc(OC)c1OC`, for which the GI50 is > 100 µM (inactive) with A498; 40.5 µM (inactive) with A549; 28.4 µM (inactive) in the experiment on COLO 205; > 100 µM (inactive) in the experiment with HCC 2998; 55.2 µM in the experiment with HCT-15; 50.1 µM (inactive) in the experiment with K562. The GI50 with KM12 is 52.1 µM (inactive); in the experiment with MCF7, 53.8 µM (inactive); in the experiment on MDA-MB-231, 79.4 µM (inactive); in the experiment on MDA-N it was 27 µM (inactive); with NCI-H522 it was 45.8 µM (inactive); with OVCAR-5, > 100 µM (inactive). Further, the GI50 in the experiment on PC-3 was 52.1 µM (inactive); in the experiment with RPMI-8226, 51.2 µM (inactive); in the experiment with SN12C, 43 µM (inactive); with SW-620 it was 33.1 µM (inactive); in the experiment with TK-10, > 100 µM (inactive); in the experiment on U-251, 46.1 µM (inactive). The results for the GI50 in the experiment with UACC-62 and in the experiment on UO-31 were 67.1 µM (inactive) and 62.8 µM (inactive), respectively.

On to `Nc1nc(Cl)c(C=O)c(NCC2(CO)CCC2)n1`, for which the GI50 was 25.1 µM (inactive) in the experiment with A498; 91.6 µM (inactive) with A549; 25.7 µM (inactive) with COLO 205; 9.48 µM (inactive) with HCC 2998; 11.8 µM with HCT-15; 3.83 µM (inactive) in the experiment on K562. The GI50 in the experiment on KM12 was 43.1 µM (inactive); in the experiment with MCF7 it was > 100 µM (inactive); with MDA-MB-231 it was 22.9 µM (inactive); in the experiment on MDA-N, 21.3 µM (inactive); with NCI-H522, 3.56 µM (inactive); in the experiment with OVCAR-5, > 100 µM (inactive). Further, the GI50 in the experiment with PC-3 is 17.7 µM (inactive); in the experiment on RPMI-8226 it was 39.7 µM (inactive); in the experiment on SN12C it was 45.2 µM (inactive); with SW-620, 28.2 µM (inactive); with TK-10, > 100 µM (inactive); in the experiment on U-251, 15.2 µM (inactive). Moreover, the GI50 in the experiment with UACC-62 was 14.3 µM (inactive); with UO-31 it was 21.8 µM (inactive).
